Experimental data published in patent publication US8735364B2, “Antisense modulation of apolipoprotein B expression” (Genzyme Corporation, priority 2001, dated 2014).

What was measured:
Format in all cases: in vivo, mouse
[1] = Body, spleen, liver and fat pad weight, high fat fed mice, 6 week study; settings: compared to saline-treated controls
Method: (§1) Male C57BL/6 mice (n=8) receiving a high fat diet (60% kcal fat) were evaluated over the course of 6 weeks for the effects of treatment with the antisense oligonucleotide, ISIS 147764. Control animals received saline treatment (50 mg/kg). A subset of animals received a daily oral dose (20 mg/kg) atorvastatin calcium (Lipitor®, Pfizer Inc.). All mice, except atorvastatin-treated animals, were dosed intraperitoneally every three days (twice a week), after fasting overnight, with 5, 25, 50 mg/kg ISIS 147764 (SEQ ID No: 109) or saline (50 mg/kg) for six weeks. Serum cholesterol and lipoproteins were analyzed at 0, 2 and 6 week interim timepoints. At study termination, animals were sacrificed 48 hours after the final injections and evaluated for levels of target mRNA levels in liver, cholesterol, lipoprotein, triglyceride, liver enzyme (AST and ALT) and serum glucose levels as well as body, liver, spleen and fat pad weights.
(§2) Male C57BL/6 mice (n=8) receiving a high fat diet (60% kcal fat) were evaluated over the course of 6 weeks for the effects of ISIS 147764 on body, spleen, liver and fat pad weight. Control animals received saline treatment (50 mg/kg). Mice were dosed intraperitoneally every three days (twice a week), after fasting overnight, with 5, 25, 50 mg/kg ISIS 147764 (SEQ ID No: 109) or saline (50 mg/kg) for six weeks.
At study termination, animals were sacrificed 48 hours after the final injections and body, spleen, liver and fat pad weights were measured. Values are expressed as percent change in body weight or ogan weight compared to the saline-treated control animals. Data from mice treated with atorvastatin at a daily dose of 20 mg/kg are also shown in the table Negative values indicated a decrease in weight.

[2] = Serum AST and ALT levels, high fat fed mice, 6 week study; settings: for ALT levels / AST levels: 6 weeks; for ALT levels: saline control 25 IU/L; for AST levels: saline control 65 IU/L
Method: as §1
as §2, with “on” for “on body, spleen,”, “liver enzyme (AST” for “liver”, “ALT) levels.” for “fat pad weight.”
Values in the table are expressed as IU/L. Increased levels of the liver enzymes ALT and AST indicate toxicity and liver damage.

[3] = Glucose, cholesterol and lipoprotein levels in ApoE knockout mice; settings: for Lipoprotein Levels HDL: Control 51; for Glucose Levels: Control 225; for Lipoprotein Levels LDL: Control 525; for Lipoprotein Levels VLDL: Control 1190; for Cholesterol Levels: Control 1750
Method: Female ApoE knockout mice ranged in age from 5 to 7 weeks and were placed on a normal diet for 2 weeks before study initiation. ApoE knockout mice were then fed ad libitum a 60% fat diet, with 0.15% added cholesterol to induce dyslipidemia and obesity. Control animals were maintained on a high-fat diet with no added cholesterol After overnight fasting, mice from each group were dosed intraperitoneally every three days with saline, 50 mg/kg of a control antisense oligonucleotide (ISIS 29837 […]; SEQ ID NO. 124) or 5, 25 or 50 mg/kg ISIS 147764 (SEQ ID No: 109) for six weeks.
At study termination and forty eight hours after the final injections, animals were sacrificed and evaluated for target mRNA levels in liver by RT-PCR methods verified by Northern Blot analysis, glucose levels, cholesterol and lipid levels by HPLC separation methods and triglyceride and liver enzyme levels (perfomed by LabCorp Preclinical Services; San Diego, Calif.). Data are normalized to saline controls.

[4] = Liver enzyme levels, lean vs high fat fed C57BL/6 mice; settings: for Liver Enzymes ALT Percent Change / Liver Enzymes AST Percent Change: 50 mg/kg i.p. every three days, six weeks
Method: (§3) Male C57BL/6 mice were divided into two matched groups; (1) wild-type control animals (lean animals) and (2) animals receiving a high fat diet (60% kcal fat). Control animals received saline treatment and were maintained on a normal rodent diet. After overnight fasting, mice from each group were dosed intraperitoneally every three days with saline or 50 mg/kg ISIS 147764 (SEQ ID No: 109) for six weeks. At study termination and forty eight hours after the final injections, animals were sacrificed and evaluated for target mRNA levels in liver, cholesterol and triglyceride levels, liver enzyme levels and serum glucose levels.

[5] = test system: apolipoprotein B mRNA; assay: Target mRNA levels in liver, high fat fed mice, 6 week timecourse study; settings: high fat fed C57BL/6 mice, six weeks
Method: as §1
as §2, with “mRNA expression.” for “body, spleen, liver and fat pad weight.”, “weeks. At study termination, animals were sacrificed 48 hours after the final injections and evaluated for levels of target mRNA levels in liver.” for “weeks.”

[6] = Cholesterol, lipoprotein, triglyceride and serum glucose levels, lean vs high fat fed C57BL/6 mice; settings: 50 mg/kg i.p. every three days, six weeks
Method: as §3

GTCCCTGAAGATGTCAATGC (2'-MOE gapmer with phosphorothioates, pattern not given here) [ISIS 147764, 2′-MOE gapmer phosphorothioate oligonucleotide to mouse apolipoprotein B]
Fat pad weight Percent Change ([1]; 5 mg/kg): 10% | Liver weight Percent Change ([1]; 5 mg/kg): 18% | Spleen weight Percent Change ([1]; 5 mg/kg): 10% | Total Body Wt. Percent Change ([1]; 5 mg/kg): 5% | Fat pad weight Percent Change ([1]; 25 mg/kg): 6% | Liver weight Percent Change ([1]; 25 mg/kg): 70% | Spleen weight Percent Change ([1]; 25 mg/kg): 10% | Total Body Wt. Percent Change ([1]; 25 mg/kg): 5% | Fat pad weight Percent Change ([1]; 50 mg/kg): −47% | Liver weight Percent Change ([1]; 50 mg/kg): 80% | Spleen weight Percent Change ([1]; 50 mg/kg): 46% | Total Body Wt. Percent Change ([1]; 50 mg/kg): −4% | ALT levels ([2]; 5 mg/kg): 50 IU/L | AST levels ([2]; 5 mg/kg): 105 IU/L | ALT levels ([2]; 25 mg/kg): 70 IU/L | AST levels ([2]; 25 mg/kg): 70 IU/L | ALT levels ([2]; 50 mg/kg): 100 IU/L | AST levels ([2]; 50 mg/kg): 80 IU/L | change in AST levels over the duration of the study compared to saline controls ([2]; 5, 25 and 50 mg/kg): no significant change | Lipoprotein Levels HDL ([3]; 5 mg/kg): 49 mg/dL | Glucose Levels ([3]; 5 mg/kg): 195 mg/dL | Lipoprotein Levels LDL ([3]; 5 mg/kg): 475 mg/dL | Lipoprotein Levels VLDL ([3]; 5 mg/kg): 1111 mg/dL | Cholesterol Levels ([3]; 5 mg/kg): 1630 mg/dL | Lipoprotein Levels HDL ([3]; 25 mg/kg): 62 mg/dL | Glucose Levels ([3]; 25 mg/kg): 209 mg/dL | Lipoprotein Levels LDL ([3]; 25 mg/kg): 500 mg/dL | Lipoprotein Levels VLDL ([3]; 25 mg/kg): 1194 mg/dL | Cholesterol Levels ([3]; 25 mg/kg): 1750 mg/dL | Lipoprotein Levels HDL ([3]; 50 mg/kg): 61 mg/dL | Glucose Levels ([3]; 50 mg/kg): 191 mg/dL | Lipoprotein Levels LDL ([3]; 50 mg/kg): 325 mg/dL | Lipoprotein Levels VLDL ([3]; 50 mg/kg): 1113 mg/dL | Cholesterol Levels ([3]; 50 mg/kg): 1490 mg/dL | Liver Enzymes ALT Percent Change ([4]; high fat fed C57BL/6 mice): Slight | Liver Enzymes AST Percent Change ([4]; high fat fed C57BL/6 mice): Slight | Liver Enzymes ALT Percent Change ([4]; lean C57BL/6 mice): No | Liver Enzymes AST Percent Change ([4]; lean C57BL/6 mice): Slight | changes in liver enzyme levels ([4]; lean and high fat fed C57BL/6 mice, 50 mg/kg): No significant changes | reduction of target mRNA levels in liver ([5]; 5 mg/kg i.p. every three days): 15% | reduction of target mRNA levels in liver ([5]; 25 mg/kg i.p. every three days): 75% | reduction of target mRNA levels in liver ([5]; 50 mg/kg i.p. every three days): 88% | CHOL Percent Change ([6]; high fat fed C57BL/6 mice): −67% | GLUC Percent Change ([6]; high fat fed C57BL/6 mice): −28% | Lipoproteins HDL Percent Change ([6]; high fat fed C57BL/6 mice): −65% | Lipoproteins LDL Percent Change ([6]; high fat fed C57BL/6 mice): −87% | Lipoproteins VLDL Percent Change ([6]; high fat fed C57BL/6 mice): No | TRIG Percent Change ([6]; high fat fed C57BL/6 mice): No | CHOL Percent Change ([6]; lean C57BL/6 mice): −63% | GLUC Percent Change ([6]; lean C57BL/6 mice): No | Lipoproteins HDL Percent Change ([6]; lean C57BL/6 mice): −44% | Lipoproteins LDL Percent Change ([6]; lean C57BL/6 mice): −64% | Lipoproteins VLDL Percent Change ([6]; lean C57BL/6 mice): No | TRIG Percent Change ([6]; lean C57BL/6 mice): −34%
